{"source": "patent US6914045B2", "about": "“Glycopeptide antibiotics” (Wyeth Holdings Corporation, priority 2001, dated 2005)", "key": {"Streptococcus sp.": {"test_system": "Streptococcus sp.", "experiment": "in vitro antibacterial evaluation, MIC by broth dilution", "type": "cell-based", "conditions": "broth dilution, 18 hours at 35° C.", "outline": "(§1)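 Broth dilution per NCCLS M7-A2 in Mueller-Hinton II medium, inoculum 5×10^5 CFU/mL, antibiotic range 64-0.06 μg/mL. MIC taken as lowest concentration inhibiting growth; Gram-positive panel includes recent clinical isolates resistant to methicillin, penicillin and/or vancomycin.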"}, "Staphylococcus sp.": {"test_system": "Staphylococcus sp.", "experiment": "in vitro antibacterial evaluation, MIC by broth dilution", "type": "cell-based", "conditions": "broth dilution, 18 hours at 35° C.", "outline": "as §1"}, "Enterococcus sp.": {"test_system": "Enterococcus sp.", "experiment": "in vitro antibacterial evaluation, MIC by broth dilution", "type": "cell-based", "conditions": "broth dilution, 18 hours at 35° C.", "outline": "as §1"}, "Escherichia coli": {"test_system": "Escherichia coli", "experiment": "in vitro antibacterial evaluation, MIC by broth dilution", "type": "cell-based", "conditions": "18 hours at 35° C."}, "[1]": {"test_system": "Staphylococcus aureus-SMITH (GC 4543)", "experiment": "acute lethal infection in mice", "type": "in vivo", "conditions": "acute lethal infection, female CD-1 mice, intraperitoneal challenge, intravenous 30 min. after infection, 7 day survival", "outline": "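Mice (female CD-1, 20+/−2 gm) receive bacteria ip in broth or hog gastric mucin, then test agent iv after 30 min. Median effective dose is calculated from 7 day survival pooled across 3 tests.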"}}}
{"smiles": "CC(c1ccccc1)C1NC(=O)CNC(=O)C(CO)NC(=O)C(C(O)C2CNC(=N)N2C2OC(CO)C(O)C(O)C2O)NC(=O)C(C(O)C2CNC(=N)N2)NC(=O)C(Cc2ccc(OC3OC(CO)C(OC4OC(CO)C(OCc5ccc(OCc6ccccc6)cc5)C(O)C4O)C(O)C3O)cc2)NC1=O", "note": "(stereo not drawn) [Example 231a, Cyclo[glycyl-β-methylphenylalanyl-O-[4-O-[4-O-[4-(phenylmethoxy)benzyl]hexopyranosyl]-hexopyranosyl]tyrosyl-3-(2-iminoimidazolidin-4-yl)seryl-3-(3-hexopyranosyl-2-iminoimidazolidin-4-yl)serylseryl]]", "values": [{"measurement": "MIC Streptococcus agalactiae (GC 4564)", "setting": "Streptococcus sp.", "result": "<0.06", "unit": "µg/mL"}, {"measurement": "MIC Streptococcus pneumoniae (ATCC 6301)", "setting": "Streptococcus sp.", "result": "<0.06", "unit": "µg/mL"}, {"measurement": "MIC Streptococcus pneumoniae (GC 1894)", "setting": "Streptococcus sp.", "result": "<0.06", "unit": "µg/mL"}, {"measurement": "MIC Streptococcus pneumoniae (GC 4565)", "setting": "Streptococcus sp.", "result": "<0.06", "unit": "µg/mL"}, {"measurement": "MIC Streptococcus pyogenes (GC 4563)", "setting": "Streptococcus sp.", "result": "<0.06", "unit": "µg/mL"}, {"measurement": "MIC Streptococcus pneumoniae (ATCC 6301)", "setting": "Streptococcus sp.; inoculum 5×10^5 CFU/mL, strain ATCC 6301", "result": "<0.06", "unit": "µg/mL"}, {"measurement": "MIC Streptococcus pneumoniae (GC 1894)", "setting": "Streptococcus sp.; inoculum 5×10^5 CFU/mL, strain GC 1894", "result": "<0.06", "unit": "µg/mL"}, {"measurement": "MIC Streptococcus pyogenes (GC 4563)", "setting": "Streptococcus sp.; inoculum 5×10^5 CFU/mL, strain GC 4563", "result": "<0.06", "unit": "µg/mL"}, {"measurement": "MIC Streptococcus agalactiae (GC 4564)", "setting": "Streptococcus sp.; inoculum 5×10^5 CFU/mL, strain GC 4564", "result": "<0.06", "unit": "µg/mL"}, {"measurement": "MIC Streptococcus pneumoniae (GC 4565)", "setting": "Streptococcus sp.; inoculum 5×10^5 CFU/mL, strain GC 4565", "result": "<0.06", "unit": "µg/mL"}, {"measurement": "MIC Coagulase Negative Staphylococcus (GC 4547)", "setting": "Staphylococcus sp.", "result": 1, "unit": "µg/mL"}, {"measurement": "MIC Coagulase Negative Staphylococcus (GC 4548)", "setting": "Staphylococcus sp.", "result": "0.12 to 0.25", "unit": "µg/mL"}, {"measurement": "MIC Coagulase Negative Staphylococcus (GC 4549)", "setting": "Staphylococcus sp.", "result": ">0.12 to 0.25", "unit": "µg/mL"}, {"measurement": "MIC Coagulase Negative Staphylococcus (GC 4551)", "setting": "Staphylococcus sp.", "result": 0.5, "unit": "µg/mL"}, {"measurement": "MIC Coagulase Negative Staphylococcus (GC 6257)", "setting": "Staphylococcus sp.", "result": 0.5, "unit": "µg/mL"}, {"measurement": "MIC Staphylococcus aureus (ATCC 29213)", "setting": "Staphylococcus sp.", "result": "1 to 2", "unit": "µg/mL"}, {"measurement": "MIC Staphylococcus aureus (GC 1131)", "setting": "Staphylococcus sp.", "result": "1 to 2", "unit": "µg/mL"}, {"measurement": "MIC Staphylococcus aureus (GC 3051)", "setting": "Staphylococcus sp.", "result": 1, "unit": "µg/mL"}, {"measurement": "MIC Staphylococcus aureus (GC 3053)", "setting": "Staphylococcus sp.", "result": "1 to 2", "unit": "µg/mL"}, {"measurement": "MIC Staphylococcus aureus (GC 4541)", "setting": "Staphylococcus sp.", "result": "1 to 2", "unit": "µg/mL"}, {"measurement": "MIC Staphylococcus aureus (GC 4542)", "setting": "Staphylococcus sp.", "result": "0.5 to 1", "unit": "µg/mL"}, {"measurement": "MIC Staphylococcus aureus (GC 4544)", "setting": "Staphylococcus sp.", "result": "2 to 4", "unit": "µg/mL"}, {"measurement": "MIC Staphylococcus aureus (GC 4545)", "setting": "Staphylococcus sp.", "result": "1 to 2", "unit": "µg/mL"}, {"measurement": "MIC Staphylococcus aureus-SMITH (GC 4543)", "setting": "Staphylococcus sp.", "result": 1, "unit": "µg/mL"}, {"measurement": "MIC Staphylococcus haemolyticus (GC 4546)", "setting": "Staphylococcus sp.", "result": 1, "unit": "µg/mL"}, {"measurement": "MIC Staphylococcus aureus (ATCC 29213)", "setting": "Staphylococcus sp.; strain ATCC 29213", "result": "1 to 2", "unit": "µg/mL"}, {"measurement": "MIC Staphylococcus aureus (GC 1131)", "setting": "Staphylococcus sp.; strain GC 1131", "result": "1 to 2", "unit": "µg/mL"}, {"measurement": "MIC Staphylococcus aureus (GC 3051)", "setting": "Staphylococcus sp.; strain GC 3051", "result": 1, "unit": "µg/mL"}, {"measurement": "MIC Staphylococcus aureus (GC 3053)", "setting": "Staphylococcus sp.; strain GC 3053", "result": "1 to 2", "unit": "µg/mL"}, {"measurement": "MIC Staphylococcus aureus (GC 4541)", "setting": "Staphylococcus sp.; strain GC 4541", "result": "1 to 2", "unit": "µg/mL"}, {"measurement": "MIC Staphylococcus aureus (GC 4542)", "setting": "Staphylococcus sp.; strain GC 4542", "result": "0.5 to 1", "unit": "µg/mL"}, {"measurement": "MIC Staphylococcus aureus-SMITH (GC 4543)", "setting": "Staphylococcus sp.; strain GC 4543", "result": 1, "unit": "µg/mL"}, {"measurement": "MIC Staphylococcus aureus (GC 4544)", "setting": "Staphylococcus sp.; strain GC 4544", "result": "2 to 4", "unit": "µg/mL"}, {"measurement": "MIC Staphylococcus aureus (GC 4545)", "setting": "Staphylococcus sp.; strain GC 4545", "result": "1 to 2", "unit": "µg/mL"}, {"measurement": "MIC Staphylococcus haemolyticus (GC 4546)", "setting": "Staphylococcus sp.; strain GC 4546", "result": 1, "unit": "µg/mL"}, {"measurement": "MIC Coagulase Negative Staphylococcus (GC 4547)", "setting": "Staphylococcus sp.; strain GC 4547", "result": 1, "unit": "µg/mL"}, {"measurement": "MIC Coagulase Negative Staphylococcus (GC 4548)", "setting": "Staphylococcus sp.; strain GC 4548", "result": "0.12 to 0.25", "unit": "µg/mL"}, {"measurement": "MIC Coagulase Negative Staphylococcus (GC 4549)", "setting": "Staphylococcus sp.; strain GC 4549", "result": "<0.12 to 0.25", "unit": "µg/mL"}, {"measurement": "MIC Coagulase Negative Staphylococcus (GC 4551)", "setting": "Staphylococcus sp.; strain GC 4551", "result": 0.5, "unit": "µg/mL"}, {"measurement": "MIC Coagulase Negative Staphylococcus (GC 6257)", "setting": "Staphylococcus sp.; strain GC 6257", "result": 0.5, "unit": "µg/mL"}, {"measurement": "MIC Enterococcus avium (GC 4558)", "setting": "Enterococcus sp.", "result": 2, "unit": "µg/mL"}, {"measurement": "MIC Enterococcus faecalis (ATCC 29212)", "setting": "Enterococcus sp.", "result": 2, "unit": "µg/mL"}, {"measurement": "MIC Enterococcus faecalis (GC 2242)", "setting": "Enterococcus sp.", "result": "2 to 4", "unit": "µg/mL"}, {"measurement": "MIC Enterococcus faecalis (GC 2691)", "setting": "Enterococcus sp.", "result": 2, "unit": "µg/mL"}, {"measurement": "MIC Enterococcus faecalis (GC 3059)", "setting": "Enterococcus sp.", "result": "1 to 2", "unit": "µg/mL"}, {"measurement": "MIC Enterococcus faecalis (GC 4552)", "setting": "Enterococcus sp.", "result": 4, "unit": "µg/mL"}, {"measurement": "MIC Enterococcus faecalis (GC 4553)", "setting": "Enterococcus sp.", "result": 4, "unit": "µg/mL"}, {"measurement": "MIC Enterococcus faecalis (GC 4554)", "setting": "Enterococcus sp.", "result": 4, "unit": "µg/mL"}, {"measurement": "MIC Enterococcus faecalis (GC 6189)", "setting": "Enterococcus sp.", "result": "1 to 2", "unit": "µg/mL"}, {"measurement": "MIC Enterococcus faecium (GC 2243)", "setting": "Enterococcus sp.", "result": 2, "unit": "µg/mL"}, {"measurement": "MIC Enterococcus faecium (GC 4556)", "setting": "Enterococcus sp.", "result": "2 to 4", "unit": "µg/mL"}, {"measurement": "MIC Enterococcus faecium (GC 4557)", "setting": "Enterococcus sp.", "result": 2, "unit": "µg/mL"}, {"measurement": "MIC Enterococcus faecalis (ATCC 29212)", "setting": "Enterococcus sp.; inoculum 5×10^5 CFU/mL, strain ATCC 29212", "result": 2, "unit": "µg/mL"}, {"measurement": "MIC Enterococcus faecalis (GC 2242)", "setting": "Enterococcus sp.; inoculum 5×10^5 CFU/mL, strain GC 2242", "result": "2 to 4", "unit": "µg/mL"}, {"measurement": "MIC Enterococcus faecium (GC 2243)", "setting": "Enterococcus sp.; inoculum 5×10^5 CFU/mL, strain GC 2243", "result": 2, "unit": "µg/mL"}, {"measurement": "MIC Enterococcus faecalis (GC 2691)", "setting": "Enterococcus sp.; inoculum 5×10^5 CFU/mL, strain GC 2691", "result": 2, "unit": "µg/mL"}, {"measurement": "MIC Enterococcus faecalis (GC 3059)", "setting": "Enterococcus sp.; inoculum 5×10^5 CFU/mL, strain GC 3059", "result": "1 to 2", "unit": "µg/mL"}, {"measurement": "MIC Enterococcus faecalis (GC 4552)", "setting": "Enterococcus sp.; inoculum 5×10^5 CFU/mL, strain GC 4552", "result": 4, "unit": "µg/mL"}, {"measurement": "MIC Enterococcus faecalis (GC 4553)", "setting": "Enterococcus sp.; inoculum 5×10^5 CFU/mL, strain GC 4553", "result": 4, "unit": "µg/mL"}, {"measurement": "MIC Enterococcus faecalis (GC 4554)", "setting": "Enterococcus sp.; inoculum 5×10^5 CFU/mL, strain GC 4554", "result": 4, "unit": "µg/mL"}, {"measurement": "MIC Enterococcus faecium (GC 4556)", "setting": "Enterococcus sp.; inoculum 5×10^5 CFU/mL, strain GC 4556", "result": "2 to 4", "unit": "µg/mL"}, {"measurement": "MIC Enterococcus faecium (GC 4557)", "setting": "Enterococcus sp.; inoculum 5×10^5 CFU/mL, strain GC 4557", "result": 2, "unit": "µg/mL"}, {"measurement": "MIC Enterococcus avium (GC 4558)", "setting": "Enterococcus sp.; inoculum 5×10^5 CFU/mL, strain GC 4558", "result": 2, "unit": "µg/mL"}, {"measurement": "MIC Enterococcus faecalis (GC 6189)", "setting": "Enterococcus sp.; inoculum 5×10^5 CFU/mL, strain GC 6189", "result": "1 to 2", "unit": "µg/mL"}, {"measurement": "MIC Escherichia coli (ATCC 25922)", "setting": "Escherichia coli", "result": "32 to 64", "unit": "µg/mL"}, {"measurement": "MIC Escherichia coli (GC 4559)", "setting": "Escherichia coli", "result": 32, "unit": "µg/mL"}, {"measurement": "MIC Escherichia coli (GC 4560)", "setting": "Escherichia coli", "result": "0.5 to 2", "unit": "µg/mL"}, {"measurement": "median effective dose (ED50), Staphylococcus aureus-SMITH (GC 4543)", "setting": "[1]", "result": 0.06, "unit": "mg/kg"}]}
